Consider 5 compounds from paper PMC8715118, “Assessing potentiation of the (α4)3(β2)2 nicotinic acetylcholine receptor by the allosteric agonist CMPI” (The Journal of Biological Chemistry, 2021).

For orientation: EC50 means the concentration that produces a half-maximal response.

Values joined by “and” are separate entries in the source; they are usually repeats but may differ in a detail not shown here. Identical values can stand only once. Like-named read-outs stand apart in the source and are kept apart here.

What all share (assay type): cell-based
Experiment [1] deals with T1, (α4)3(β2)2 nAChR (Homo sapiens, UniProt P17787+P43681).
T1 construct: expressed in transfected cells; host or cells: Xenopus laevis oocytes injected with cRNA, 8:1 α4:β2
The experiment is described as follows: Mechanistic (Monod-Wyman-Changeux two-state model) analysis of current responses, WT (α4)3(β2)2 nAChR. The settings on record: for peak PA: calculated with Equation 2; for Kd / c, ratio of equilibrium dissociation constants active/resting receptor: WT. The text has this:
To gain mechanistic insight into receptor activation in the presence of CMPI, we analyzed the currents in the framework of a cyclic two-state (resting and active) allosteric activation model ([31], [32], [33]). In this model, channel opening is mediated by stabilization of the active state by an agonist that, by definition, has higher affinity to the active than resting state.
We commenced by converting the raw amplitudes of current responses to units of probability of being in the active state (PA units).
Further analysis of electrophysiological data was conducted in the framework of the two-state concerted transition model, adapted from the MWC cyclic model originally used to describe enzyme function ([31], [32], [33]). The raw peak amplitudes of current responses were converted to units of probability of being in the active state (PA).
The numbers of α4:β2 and α4:α4 binding sites (Nα4:β2 and Nα4:α4) were constrained to 2 and 1, respectively.
The concentration-response curve for TC-2559 was fitted to the following equation:(3) PA=1/1+L[1+[TC-2559]/KR,TC-2559,α4:β2/1+[TC-2559]/(KR,TC-2559,α4:β2cTC-2559,α4:β2)]^Nα4:β2
The concentration-response data were analyzed using Equation 3, with the value of L modified to reflect receptor activation by TC-2559, and the affinity and efficacy terms in the equation reflecting the values for CMPI. The number of binding sites for CMPI in Equation 3 was constrained to 1.
Curve fitting was done using Origin 2020 (OriginLab Corp). The results are reported as best-fit parameter ±SD of the fit. All data are included in the analysis.

The target of experiment [2] is T1, (α4)3(β2)2 nAChR. The experiment is described as follows: Two-electrode voltage-clamp whole-cell currents, Xenopus oocytes expressing WT (α4)3(β2)2 nAChR. The settings on record: for current response produced by a saturating concentration (100 μM), % of current elicited by 1 mM ACh: 100 μM agonist; for current response at subsaturating concentration, % of the current response to 1 mM ACh: subsaturating (1 μM) agonist. The procedure: (§1) Oocytes-positive female Xenopus laevis were purchased from NASCO, and all procedures were performed according to an animal use protocol approved by the Institutional Animals Care and Use Committee of The University of Texas Health Science Center at Tyler. Ovarian lobules were surgically harvested, treated with collagenase type 2, and Stage V and VI oocytes were visually selected and maintained at 18 °C in modified ND96-gentamicin buffer (96 mM NaCl, 2 mM KCl, 1.8 mM CaCl2, 1 mM MgCl2, 5 mM Hepes, and 50 μg/ml gentamicin, pH 7.6).
(§2) pSP64 Poly(A) plasmids with cDNA encoding for human α4 or β2 nAChR subunit were used to prepare cRNA transcripts suitable for oocyte expression. The plasmids were linearized with AseI (hα4) and PvuII (hβ2), then cRNA transcripts were prepared in vitro using mMESSAGE mMACHINE high yield-capped RNA transcription kits (Ambion, Thermo Fisher Scientific), purified on NucAway Spin column (Invitrogen, Thermo Fisher Scientific), and stored at −80 °C until used. Point mutations within the plasmid encoding the α4 nAChR subunit were introduced using QuikChange II Site-Directed Mutagenesis Kit (Agilent Technologies), as described previously ([28]). To generate amino acid substitutions (K64T, E66I, H116V, H116L, and H116A), two custom-designed complementary oligos containing the desired mutation were used (Integrated DNA Technologies). The forward primers were as the following with the codon for mutated amino acids are underlined and nucleotide(s) changes are bolded and italicized:
(§3) The oocytes were injected with 10 to 50 ng of a cRNA mix containing α4 (WT or mutant) and β2 RNAs at ratios of 8:1(α4:β) or 1:8 (α4:β2) to bias expression toward (α4)3(β2)2 or (α4)2(β2)3 nAChRs, respectively. The injection of oocytes with RNAs mixture containing four folds or higher α4 RNA than β2 RNA have been established to express receptor population that is made up of three α4 and two β2 subunits ([9], [12], [28], [43], [44], [45]).
(§4) 24 to 72 h after cRNA injection, Xenopus oocytes were placed in a custom-made recording chamber that is connected to an eight-channel automated perfusion system (Warner Instruments) and perfused with recording buffer (100 mM NaCl, 2 mM KCl, 1 mM CaCl2, 0.8 mM MgCl2, 1 mM EGTA, and 10 mM Hepes, pH 7.5). Unless otherwise specified in figure legends, each recording run included several drug applications (10 s of an agonist with or without CMPI or NS9283) separated by 3 to 4 min buffer wash intervals. Between recording runs, the oocytes were washed with recording buffer for at last 5 min. The oocytes were voltage-clamped at −50 mV using Oocyte Clamp OC-725B (Warner Instruments). The currents were digitized using Digidata 1550A (Axon Instruments, Molecular Devices), and the peak currents were quantified using pCLAMP 10 (Axon Instruments), then normalized and analyzed using Excel 2010 (Microsoft) and SigmaPlot 11.0 (Systat Software). For NS9283 and CMPI potentiation of agonist-induced responses, the peak currents were normalized to current elicited by agonist alone applied within the same recording run. For the effect of coapplication of 1 μM NS9283 or CMPI on agonist concentration-response curve, the peak currents were normalized to current elicited by saturating concentration of agonist applied within the same recording run. […] I0 = 100 for NS9283 and CMPI potentiation of agonist-induced responses and I0 = 0 for agonist concentration-response experiments. The best-fit values for Imax and EC50 ± SD are presented.

Another experiment addresses T2, (α4H116A)3(β2)2 nAChR (Homo sapiens, UniProt P17787+P43681, H142A).
T2 construct: expressed in transfected cells; host or cells: Xenopus laevis oocytes injected with cRNA, 8:1 α4:β2
Description: Two-electrode voltage-clamp, oocytes expressing (α4H116A)3(β2)2 nAChR. The settings on record: 1 μM modulator. Here is the method:
as §1, §2, §3, §4
A general note: Two-electrode voltage clamp holds a large cell at a set potential and records current.

Another experiment concerns the target T3, (α4K64T)3(β2)2 nAChR (Homo sapiens, UniProt P17787+P43681, K90T).
T3 construct: expressed in transfected cells; host or cells: Xenopus laevis oocytes injected with cRNA, 8:1 α4:β2
The experiment is described as follows: Two-electrode voltage-clamp, oocytes expressing (α4K64T)3(β2)2 nAChR. Here is the method:
as §1, §2, §3
(§5) 24 to 72 h after cRNA injection, Xenopus oocytes were placed in a custom-made recording chamber that is connected to an eight-channel automated perfusion system (Warner Instruments) and perfused with recording buffer (100 mM NaCl, 2 mM KCl, 1 mM CaCl2, 0.8 mM MgCl2, 1 mM EGTA, and 10 mM Hepes, pH 7.5). Unless otherwise specified in figure legends, each recording run included several drug applications (10 s of an agonist with or without CMPI or NS9283) separated by 3 to 4 min buffer wash intervals. Between recording runs, the oocytes were washed with recording buffer for at last 5 min. […] The currents were digitized using Digidata 1550A (Axon Instruments, Molecular Devices), and the peak currents were quantified using pCLAMP 10 (Axon Instruments), then normalized and analyzed using Excel 2010 (Microsoft) and SigmaPlot 11.0 (Systat Software). […]

A further experiment concerns the target T4, (α4E66I)3(β2)2 nAChR (Homo sapiens, UniProt P17787+P43681, E92I).
T4 construct: expressed in transfected cells; host or cells: Xenopus laevis oocytes injected with cRNA, 8:1 α4:β2
The experiment is described as follows: Two-electrode voltage-clamp, oocytes expressing (α4E66I)3(β2)2 nAChR. Here is the method: as §1, §2, §3, §5

The next experiment deals with T5, (α4H116L)3(β2)2 nAChR (Homo sapiens, UniProt P17787+P43681, H142L).
T5 construct: expressed in transfected cells; host or cells: Xenopus laevis oocytes injected with cRNA, 8:1 α4:β2
The experiment is described as follows: Two-electrode voltage-clamp, oocytes expressing (α4H116L)3(β2)2 nAChR. Here is the method:
as §1, §2, §3, §5

The target of another experiment is T6, (α4H116V)3(β2)2 nAChR (Homo sapiens, UniProt P17787+P43681, H142V).
T6 construct: expressed in transfected cells; host or cells: Xenopus laevis oocytes injected with cRNA, 8:1 α4:β2
Description: Two-electrode voltage-clamp, oocytes expressing (α4H116V)3(β2)2 nAChR. The procedure: as §1, §2, §3, §5

T1 sequence (P43681 27-627): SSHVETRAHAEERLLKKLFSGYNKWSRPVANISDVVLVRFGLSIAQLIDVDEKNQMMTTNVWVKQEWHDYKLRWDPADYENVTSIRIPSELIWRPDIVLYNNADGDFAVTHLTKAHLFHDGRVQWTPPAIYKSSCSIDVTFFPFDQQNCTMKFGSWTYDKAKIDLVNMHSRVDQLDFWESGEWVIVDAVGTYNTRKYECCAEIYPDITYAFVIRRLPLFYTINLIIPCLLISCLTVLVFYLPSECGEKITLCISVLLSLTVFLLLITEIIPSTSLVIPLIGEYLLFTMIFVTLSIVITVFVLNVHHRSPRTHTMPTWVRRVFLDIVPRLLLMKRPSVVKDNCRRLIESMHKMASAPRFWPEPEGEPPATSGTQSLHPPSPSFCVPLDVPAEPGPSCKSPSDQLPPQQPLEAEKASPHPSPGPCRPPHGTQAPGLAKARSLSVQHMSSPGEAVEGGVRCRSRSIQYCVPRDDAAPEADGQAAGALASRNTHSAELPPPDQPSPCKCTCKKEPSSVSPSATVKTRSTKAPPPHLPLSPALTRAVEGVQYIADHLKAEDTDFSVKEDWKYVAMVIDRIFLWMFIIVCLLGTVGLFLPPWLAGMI
T1 sequence (P17787 26-502): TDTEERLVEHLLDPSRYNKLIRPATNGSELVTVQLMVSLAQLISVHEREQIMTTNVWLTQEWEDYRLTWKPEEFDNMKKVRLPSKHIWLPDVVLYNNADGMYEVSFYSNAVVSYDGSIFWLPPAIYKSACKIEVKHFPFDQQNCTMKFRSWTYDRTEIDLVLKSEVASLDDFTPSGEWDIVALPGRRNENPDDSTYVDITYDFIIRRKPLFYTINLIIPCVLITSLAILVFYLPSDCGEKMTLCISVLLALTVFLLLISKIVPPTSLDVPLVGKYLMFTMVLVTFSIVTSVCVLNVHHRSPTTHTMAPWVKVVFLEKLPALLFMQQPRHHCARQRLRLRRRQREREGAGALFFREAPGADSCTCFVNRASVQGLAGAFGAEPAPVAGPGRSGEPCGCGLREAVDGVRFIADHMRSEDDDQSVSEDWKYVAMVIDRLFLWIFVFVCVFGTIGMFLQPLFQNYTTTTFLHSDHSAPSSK
T3 sequence (P43681 27-627 K90T): as the sequence (P43681 27-627) above, with K64T counted along it
T3 sequence (P17787 26-502): as the sequence (P17787 26-502) above
T6 sequence (P43681 27-627 H142V): as the sequence (P43681 27-627) above, with H116V counted along it
T6 sequence (P17787 26-502): as the sequence (P17787 26-502) above
T2 sequence (P43681 27-627 H142A): as the sequence (P43681 27-627) above, with H116A counted along it
T2 sequence (P17787 26-502): as the sequence (P17787 26-502) above
T5 sequence (P43681 27-627 H142L): as the sequence (P43681 27-627) above, with H116L counted along it
T5 sequence (P17787 26-502): as the sequence (P17787 26-502) above
T4 sequence (P43681 27-627 E92I): as the sequence (P43681 27-627) above, with E66I counted along it
T4 sequence (P17787 26-502): as the sequence (P17787 26-502) above

On to `CC(=O)OCC[N+](C)(C)C` [ACh, Acetylcholine chloride], for which the “PA,1 mM ACh (peak probability of being in the active state)” value at (α4)3(β2)2 nAChR [1] (1 mM ACh, normalized to 1 mM ACh + 3 μM dFBr) was 0.36 ± 0.05 and 0.36. Moreover, on (α4)3(β2)2 nAChR [1] (binding to the single α4:α4 site), the “free energy change toward stabilization of the active state (ΔGgating)” value is -1.27 kcal/mol. Also, on (α4)3(β2)2 nAChR [1] (binding to the two α4:β2 sites), the “free energy change toward stabilization of the active state (ΔGgating,total)” value was -1.69 kcal/mol. For the same compound, the “peak PA” value at (α4)3(β2)2 nAChR [1] (occupation of the two α4:β2 sites and the single α4:α4 site with ACh) is given as 0.36; on (α4)3(β2)2 nAChR [1] (occupation of the two α4:β2 sites with ACh) it was 0.072. Further, on (α4)3(β2)2 nAChR [1] (per α4:β2 site), the ΔGgating per site is -0.84 kcal/mol.

For `N#Cc1cccc(-c2nc(-c3cccnc3)no2)c1` [NS9283, 3-[3-(3-pyridinyl)-1,2,4-oxadiazol-5-yl]benzonitrile], the maximal potentiation was found to be 1800 ± 307% on (α4)3(β2)2 nAChR [2] (1 μM TC-2559) and 1522 ± 41% on (α4)3(β2)2 nAChR [2] (10 μM TC-2559). Besides, on (α4)3(β2)2 nAChR [2] (1 μM modulator, ACh, nicotine, cytisine, TC-2559, p < 0.001), the “effect on responses to agonists at subsaturating concentrations” value is given as “potentiated”. The “effect on responses to saturating concentrations of the tested agonists” value at (α4)3(β2)2 nAChR [2] (1 μM modulator, except for TC-2559) is listed as “did not potentiate”. Besides, the “potentiation fold (Ave ± SD), agonist + 1 μM modulator / agonist alone” value at (α4)3(β2)2 nAChR [2] (ACh (1 mM), 1 μM modulator) was 1.00 ± 0.04; at (α4)3(β2)2 nAChR [2] (TC 2559 (30 μM), 1 μM modulator), 5.05 and 5.05 ± 1.66; on (α4H116A)3(β2)2 nAChR (ACh (1 mM)), 0.98 ± 0.03; at (α4H116A)3(β2)2 nAChR (TC 2559 (30 μM)), 0.93 ± 0.12; on (α4K64T)3(β2)2 nAChR (ACh (1 mM)), 1.10 ± 0.08; at (α4K64T)3(β2)2 nAChR (TC 2559 (30 μM)) it was 4.72 ± 2.27. In addition, the “potentiation fold (Ave ± SD), agonist + 1 μM modulator / agonist alone” value worked out at 0.95 ± 0.07 on (α4E66I)3(β2)2 nAChR (ACh (1 mM)); 2.68 ± 1.08 on (α4E66I)3(β2)2 nAChR (TC 2559 (30 μM)); 0.95 ± 0.03 on (α4H116L)3(β2)2 nAChR (ACh (1 mM)); 1.18 ± 0.17 on (α4H116L)3(β2)2 nAChR (TC 2559 (30 μM)); 0.90 ± 0.02 on (α4H116V)3(β2)2 nAChR (ACh (1 mM)); 0.87 ± 0.06 on (α4H116V)3(β2)2 nAChR (TC 2559 (30 μM)). The EC50 at (α4)3(β2)2 nAChR [2] (responses induced by 1 μM TC-2559, read-out: potentiation EC50) was found to be 1.9 ± 0.2 µM; at (α4)3(β2)2 nAChR [2] (responses induced by 10 μM TC-2559, read-out: potentiation EC50), 1.8 ± 0.12 µM.

As to `O=c1cccc2n1C[C@@H]1CNC[C@H]2C1` [cytisine], the “current response produced by a saturating concentration (100 μM), % of current elicited by 1 mM ACh” value on (α4)3(β2)2 nAChR [2] was found to be 10 ± 1%. Moreover, the “I100 μM cytisine + 1 μM CMPI” value on (α4)3(β2)2 nAChR [2] (% of 100 μM cytisine alone) stood at 91 ± 5%. Also, at (α4)3(β2)2 nAChR [2] (% of 100 μM cytisine alone, data not shown), the “I100 μM cytisine + 1 μM NS9283” value is given as 113 ± 9%. Also, the concentration giving a half-maximal response (EC50) on (α4)3(β2)2 nAChR [2] (agonist alone, read-out: agonist EC50) was 11 ± 6 µM. For the same compound, the “current response at subsaturating concentration, % of the current response to 1 mM ACh” value at (α4)3(β2)2 nAChR [2] is 2.3 ± 0.4%. Also, the Kd on (α4)3(β2)2 nAChR [1] (KR, equilibrium dissociation constant in the resting receptor, α4:α4 site) was determined as 8.3 ± 0.5 µM; at (α4)3(β2)2 nAChR [1] (read-out: KR, equilibrium dissociation constant in the resting receptor, α4:β2 site), 0.63 ± 1.24 µM. Moreover, the results for the “c, ratio of equilibrium dissociation constants active/resting receptor” value at (α4)3(β2)2 nAChR [1] (α4:α4 site) and at (α4)3(β2)2 nAChR [1] (α4:β2 site) were 0.155 ± 0.104 and 0.875 ± 0.029, respectively.

With `C=CC(C)(C)c1[nH]c2cc(Br)ccc2c1CCNC` [dFBr, desformylflustrabromine], the “peak response to 1 mM ACh, % of control” value on (α4)3(β2)2 nAChR [2] (1 mM ACh + 3 μM dFBr) turned out to be 278 ± 36%.

For `CN1CCC[C@H]1c1cccnc1` [nicotine], at (α4)3(β2)2 nAChR [2], the “current response produced by a saturating concentration (100 μM), % of current elicited by 1 mM ACh” value was 73 ± 3% and the “current response at subsaturating concentration, % of the current response to 1 mM ACh” value was determined as 2.9 ± 0.4%.
